# Reference: ChEMBL document CHEMBL1201862, “PubChem BioAssay data set” (2004)
# Active and inactive are the calls of the source.
# System: not listed separately
# Test: inhibitors of firefly luciferase expression or activity, dose response, H4 neuroglioma cells, luminescence (AID 1990)
# Format: functional, cell-based
# Details: not given
row,Compound,EC50
1,CC1(C)Cc2c(sc(NC(=O)COc3ccc(Cl)cc3Cl)c2C(N)=O)C(C)(C)N1,17.3 µM (active)

# System: not listed separately
# Test: inhibitors of clade B AD8 Env fusion, dose response, cell-based, cherry-pick (AID 652062);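 note: luciferase signal from cell-cell fusion driven by HIV-1 clade B AD8 Env; potency is for inhibitors of fusion seen as a drop in luminescence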
# Format: functional
# Details: not given
row,Compound,AC50
1,Cc1ccc(S(=O)(=O)N[C@H]2C=C[C@H](CC(=O)N3CCC(Cc4ccccc4)CC3)O[C@H]2CO)cc1,34.3 µM (active)
2,COc1cccc(NC(=O)N(C)C[C@@H]2OCc3ccccc3-c3c(n(C)c4ccccc34)C(=O)N([C@@H](C)CO)C[C@@H]2C)c1,< 0.26 µM (active)

# Target: T1, Bcl-2-related protein A1 (Mus musculus, UniProt Q07440);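 note: confirmatory dose–response counterscreen on Bfl-1, used to check hits from a UBC13 polyubiquitin inhibitor campaign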
# T1 sequence (Q07440 whole entry): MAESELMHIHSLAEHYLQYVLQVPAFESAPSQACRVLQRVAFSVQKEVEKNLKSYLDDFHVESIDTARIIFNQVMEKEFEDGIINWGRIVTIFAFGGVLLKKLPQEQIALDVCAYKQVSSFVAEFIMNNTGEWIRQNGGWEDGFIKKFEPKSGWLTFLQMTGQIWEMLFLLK
# Test: not given
# Format: functional
# Details: not given
row,Compound,IC50
1,O=C(CCCCn1c(=O)c2ccccc2n(Cc2ccccc2)c1=O)NC1CCN(Cc2ccccc2)CC1,> 20 µM (inactive)
2,CC1(C)Cc2c(sc(NC(=O)COc3ccc(Cl)cc3Cl)c2C(N)=O)C(C)(C)N1,> 20 µM (inactive)
3,CCN=C(S)N=Nc1c(O)[nH]c2ccc(C(C)C)cc12,> 20 µM (inactive)
4,O=C(CCCCn1c(=O)c2ccccc2n(Cc2ccccc2F)c1=O)NC1CCN(Cc2ccccc2)CC1,> 20 µM (inactive)
5,COCCN=C(S)N=Nc1c(O)[nH]c2c(C)cc(C)cc12,> 20 µM (inactive)
6,C#CCOCCOCCOCCNc1nc(N2CCN(C(=O)[C@H](CCCCN)n3cc(CN)nn3)CC2)nc(N2CCN(C(=O)[C@H](CCC(=O)O)n3cc([C@@H](N)CCCCN)nn3)CC2)n1,> 20 µM (inactive)
7,COc1ccc(-c2sc3ccccc3c2-c2ccc(OCCN3CCOCC3)cc2)cc1,> 20 µM (inactive)

# Target: T2, Ubiquitin-conjugating enzyme E2 N (Homo sapiens, UniProt P61088)
# T2 sequence (P61088 whole entry): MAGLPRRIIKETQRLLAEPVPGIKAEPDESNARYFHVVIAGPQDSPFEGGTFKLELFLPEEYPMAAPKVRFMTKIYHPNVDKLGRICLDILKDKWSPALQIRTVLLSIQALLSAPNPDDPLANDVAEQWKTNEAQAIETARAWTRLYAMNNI
# Test: not given
# Format: functional
# Details: not given
row,Compound,IC50
1,O=C(CCCCn1c(=O)c2ccccc2n(Cc2ccccc2)c1=O)NC1CCN(Cc2ccccc2)CC1,5.17 µM (active)
2,CC1(C)Cc2c(sc(NC(=O)COc3ccc(Cl)cc3Cl)c2C(N)=O)C(C)(C)N1,2.86 µM (active)
3,CCN=C(S)N=Nc1c(O)[nH]c2ccc(C(C)C)cc12,2.49 µM (active)
4,O=C(CCCCn1c(=O)c2ccccc2n(Cc2ccccc2F)c1=O)NC1CCN(Cc2ccccc2)CC1,5.47 µM (active)
5,COCCN=C(S)N=Nc1c(O)[nH]c2c(C)cc(C)cc12,0.561 µM (active)
6,C#CCOCCOCCOCCNc1nc(N2CCN(C(=O)[C@H](CCCCN)n3cc(CN)nn3)CC2)nc(N2CCN(C(=O)[C@H](CCC(=O)O)n3cc([C@@H](N)CCCCN)nn3)CC2)n1,2.79 µM (active)
7,COc1ccc(-c2sc3ccccc3c2-c2ccc(OCCN3CCOCC3)cc2)cc1,> 20 µM (inactive)

# Target: Nonstructural protein 1 (Influenza A virus, UniProt Q194T2)
# Sequence (Q194T2 whole entry): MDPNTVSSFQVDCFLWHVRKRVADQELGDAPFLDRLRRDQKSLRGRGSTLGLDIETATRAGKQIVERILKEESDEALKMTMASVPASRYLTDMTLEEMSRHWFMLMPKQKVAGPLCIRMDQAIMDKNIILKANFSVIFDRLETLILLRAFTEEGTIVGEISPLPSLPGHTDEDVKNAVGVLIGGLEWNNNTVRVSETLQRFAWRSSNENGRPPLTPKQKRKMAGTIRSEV
# Test: not given
# Format: functional, Influenza A virus (A/California/07/2009(H1N1))
# Details: not given
row,Compound,IC50
1,CCNc1nc(NCC)nc(N(C)N)n1,12.7 µM (active)
2,CCOC(=O)/C(C#N)=C1/C(=O)N(Cc2ccccc2)c2ccccc21,99.6 µM (active)
3,C=CCOc1ccc(CNc2ccc(NC(=O)CCC)cc2)cc1OCC,> 100 µM (active)
4,O=C(CNCc1ccccn1)Nc1cc(S(=O)(=O)N2CCCCC2)ccc1Cl,6.83 µM (active)
5,CC1(C)SC2C(C(=O)O)N=C(Cc3ccccc3)N2C1C(=O)O (stereo not given),12.2 µM (active)

# System: not listed separately
# Test: cytotoxicity toward NIH3T3 fibroblasts, dose response, counter-screen, cell-based, ATP luminescence, mouse fibroblasts (AID 2010);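 note: cells exposed to compound for about 90 hours before reading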
# Format: functional
# Details: not given
row,Compound,EC50
1,O=C(CCCCn1c(=O)c2ccccc2n(Cc2ccccc2)c1=O)NC1CCN(Cc2ccccc2)CC1,> 60 µM (not active)

# System: not listed separately
# Test: cells
# Format: functional
# Details: not given
row,Compound,IC50
1,Cc1cccc(NC(=O)c2cc3ccccc3o2)c1,40.5 µM (active)
2,Cc1cccc(OCCCCc2c(C)n[nH]c2C)c1,9.67 µM (active)
3,CN(C)c1ccc(/C=C2\N=C(C(C)(C)C)OC2=O)cc1,11.3 µM (active)
4,O=C(NNc1nc2cc3c(cc2s1)OCCO3)c1ccccc1,48.3 µM (active)
5,CCOC(=O)N/N=C\c1ccc([N+](=O)[O-])s1,34 µM (active)
6,Cc1ccc(/C=N/NC(=O)c2ccncc2)o1,1.18 µM (active)

# System: not listed separately
# Test: inhibitors of HIV Env-driven cell fusion, dose response, cherry-pick (AID 652057)
# Format: functional, cell-based
# Details: not given
row,Compound,AC50
1,Cc1ccc(S(=O)(=O)N[C@H]2C=C[C@H](CC(=O)N3CCC(Cc4ccccc4)CC3)O[C@H]2CO)cc1,69.4 µM (active)
2,COc1cccc(NC(=O)N(C)C[C@@H]2OCc3ccccc3-c3c(n(C)c4ccccc34)C(=O)N([C@@H](C)CO)C[C@@H]2C)c1,< 0.26 µM (active)

# Target: T3, Rac GTPase-activating protein 1 (Homo sapiens, UniProt Q9H0H5)
# T3 sequence (Q9H0H5 whole entry): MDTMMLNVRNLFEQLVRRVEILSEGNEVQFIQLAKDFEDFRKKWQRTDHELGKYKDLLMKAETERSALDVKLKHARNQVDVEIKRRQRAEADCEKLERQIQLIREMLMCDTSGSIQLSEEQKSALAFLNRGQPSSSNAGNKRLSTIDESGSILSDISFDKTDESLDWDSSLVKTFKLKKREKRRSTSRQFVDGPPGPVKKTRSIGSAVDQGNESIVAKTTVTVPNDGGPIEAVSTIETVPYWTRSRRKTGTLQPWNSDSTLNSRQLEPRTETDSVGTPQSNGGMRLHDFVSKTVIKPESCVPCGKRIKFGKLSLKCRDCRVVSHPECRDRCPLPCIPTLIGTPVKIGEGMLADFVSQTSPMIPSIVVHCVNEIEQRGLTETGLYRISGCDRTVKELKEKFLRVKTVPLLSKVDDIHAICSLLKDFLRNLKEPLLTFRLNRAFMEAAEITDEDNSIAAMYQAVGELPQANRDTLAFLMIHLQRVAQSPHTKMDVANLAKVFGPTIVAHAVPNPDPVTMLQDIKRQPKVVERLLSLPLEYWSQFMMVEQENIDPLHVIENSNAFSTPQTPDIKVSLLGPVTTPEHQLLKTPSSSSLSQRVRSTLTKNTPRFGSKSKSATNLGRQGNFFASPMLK
# Test: MgcRacGAP GTPase-activating activity inhibitors, confirmation, biochemical, ADP Hunter fluorescence, primary and confirmatory (AID 624330)
# Format: functional
# Details: not given
row,Compound,IC50
1,CCOC(=O)/C(C#N)=C1/C(=O)N(Cc2ccccc2)c2ccccc21,61 µM (active)
2,C#CCOCCOCCOCCNc1nc(N2CCN(C(=O)[C@H](CCCCN)n3cc(CN)nn3)CC2)nc(N2CCN(C(=O)[C@H](CCC(=O)O)n3cc([C@@H](N)CCCCN)nn3)CC2)n1,190 µM (active)

# System: not listed separately
# Test: Luminescence Cell-Based Dose Response HTS to Identify Inhibitors of 5'UTR Stem-Loop Driven Prion Protein mRNA Translation in H4 Neuroglioblastoma Cells. [Related pubchem assays: 1827 (Project Summary), 1813 (Primary HTS)]
# Format: functional
# Details: not given
row,Compound,EC50
1,CC1(C)Cc2c(sc(NC(=O)COc3ccc(Cl)cc3Cl)c2C(N)=O)C(C)(C)N1,18.7 µM (active)

# Target: T4, Zinc finger protein mex-5 (Caenorhabditis elegans, UniProt Q9XUB2)
# T4 sequence (Q9XUB2 whole entry): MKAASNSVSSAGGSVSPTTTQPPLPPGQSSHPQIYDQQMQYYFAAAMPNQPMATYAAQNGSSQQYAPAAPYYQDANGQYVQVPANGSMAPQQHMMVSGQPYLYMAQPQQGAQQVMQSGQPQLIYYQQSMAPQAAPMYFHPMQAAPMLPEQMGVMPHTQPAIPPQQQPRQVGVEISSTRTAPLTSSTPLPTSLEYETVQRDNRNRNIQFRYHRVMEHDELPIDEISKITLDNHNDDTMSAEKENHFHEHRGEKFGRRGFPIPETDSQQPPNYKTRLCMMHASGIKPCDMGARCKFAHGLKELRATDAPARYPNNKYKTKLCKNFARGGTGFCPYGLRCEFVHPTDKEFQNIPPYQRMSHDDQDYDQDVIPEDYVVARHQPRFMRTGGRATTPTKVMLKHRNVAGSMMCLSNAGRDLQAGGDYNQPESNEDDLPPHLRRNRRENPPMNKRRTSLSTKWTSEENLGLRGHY
# Test: MEX-5/TCR-2 RNA interaction inhibitors, dose response, biochemical, C. elegans, fluorescence polarization (AID 1960)
# Details: not given
row,Compound,EC50
1,N=C1c2ccccc2CN1NC(=O)CC12CC3CC(CC(C3)C1)C2,> 300 µM (not active)
2,CN(C)c1ccc(/C=C2\N=C(C(C)(C)C)OC2=O)cc1,22.3 µM (inconclusive)
3,COC(=O)c1ccc(-n2c(CCC(=O)O)ccc2-c2ccccc2)cc1,> 300 µM (not active)
4,CCc1ccc(NC(=O)/C(C#N)=C/c2cc3ccc(C)cc3nc2N2CCOCC2)cc1,113 µM (active)
5,Cc1nn(C(C)C(=O)N2CCOCC2)c(=O)c2nn(-c3ccccc3)c(C)c12 (stereo not given),> 300 µM (not active)

# System: not listed separately
# Test: inhibitors of SNCA 5'UTR-driven reporter translation, confirmation, H4 neuroglioma cells, luminescence (AID 1988)
# Format: functional, cell-based
# Details: not given
row,Compound,EC50
1,CC1(C)Cc2c(sc(NC(=O)COc3ccc(Cl)cc3Cl)c2C(N)=O)C(C)(C)N1,> 120 µM (not active)

# Target: Cytochrome P450 2C19 (Homo sapiens, UniProt P33261)
# Sequence (P33261 whole entry): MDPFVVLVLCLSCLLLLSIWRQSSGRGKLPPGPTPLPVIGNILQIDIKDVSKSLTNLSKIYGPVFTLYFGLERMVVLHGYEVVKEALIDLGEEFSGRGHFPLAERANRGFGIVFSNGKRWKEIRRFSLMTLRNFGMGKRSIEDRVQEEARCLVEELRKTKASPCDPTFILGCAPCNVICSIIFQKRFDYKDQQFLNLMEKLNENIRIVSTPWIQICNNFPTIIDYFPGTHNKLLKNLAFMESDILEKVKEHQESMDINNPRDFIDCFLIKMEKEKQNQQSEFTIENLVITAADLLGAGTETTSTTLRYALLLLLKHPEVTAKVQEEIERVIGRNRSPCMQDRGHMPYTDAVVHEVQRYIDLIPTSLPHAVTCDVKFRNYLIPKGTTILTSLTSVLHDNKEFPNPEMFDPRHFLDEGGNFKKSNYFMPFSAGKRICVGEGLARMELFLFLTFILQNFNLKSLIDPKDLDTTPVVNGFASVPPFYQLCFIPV
# Test: Cytochrome panel assay with activity outcomes. Panel member name: p450-cyp2c19 Compounds with AC50 equal or less than 10 uM are considered active
# Format: functional
# Details: read-out: AC50
row,Compound,AC50
1,CCNc1nc(NCC)nc(N(C)N)n1,0.00141 µM (inconclusive)

# Target: T2, Ubiquitin-conjugating enzyme E2 N
# Test: not given
# Format: functional
# Details: not given
# Remark: another data set of the same source
row,Compound,IC50
1,O=C(CCCCn1c(=O)c2ccccc2n(Cc2ccccc2)c1=O)NC1CCN(Cc2ccccc2)CC1,9.28 µM (active)
2,CC1(C)Cc2c(sc(NC(=O)COc3ccc(Cl)cc3Cl)c2C(N)=O)C(C)(C)N1,4.55 µM (active)
3,CCN=C(S)N=Nc1c(O)[nH]c2ccc(C(C)C)cc12,6.7 µM (active)
4,O=C(CCCCn1c(=O)c2ccccc2n(Cc2ccccc2F)c1=O)NC1CCN(Cc2ccccc2)CC1,11.3 µM (active)
5,COCCN=C(S)N=Nc1c(O)[nH]c2c(C)cc(C)cc12,6.28 µM (active)
6,C#CCOCCOCCOCCNc1nc(N2CCN(C(=O)[C@H](CCCCN)n3cc(CN)nn3)CC2)nc(N2CCN(C(=O)[C@H](CCC(=O)O)n3cc([C@@H](N)CCCCN)nn3)CC2)n1,2.85 µM (active)
7,COc1ccc(-c2sc3ccccc3c2-c2ccc(OCCN3CCOCC3)cc2)cc1,15.1 µM (active)

# System: not listed separately
# Test: inhibitors of intracellular T. cruzi replication, confirmation, NIH3T3 host cells, beta-gal luminescence (AID 2044);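 note: intracellular parasites grown in NIH/3T3 mouse fibroblasts as host cells; luminescent beta-galactosidase reporter signal from transgenic T. cruzi replicating inside host cells; inhibitors lower the luminescence signal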
# Format: functional, cell-based
# Details: not given
row,Compound,EC50
1,O=C(CCCCn1c(=O)c2ccccc2n(Cc2ccccc2)c1=O)NC1CCN(Cc2ccccc2)CC1,0.695 µM (active)

# System: not listed separately
# Test: Luminescence Cell-Based Dose Retest to Confirm Inhibitors of Cancer Stem Cells. [Related pubchem assays (depositor defined):AID2717, AID2721]
# Format: functional
# Details: Homo sapiens
row,Compound,AC50
1,COc1ccc(-c2sc3ccccc3c2-c2ccc(OCCN3CCOCC3)cc2)cc1,0.842 µM (active)

# Target: T5, RNA-binding protein pos-1 (Caenorhabditis elegans, UniProt G5EF15)
# T5 sequence (G5EF15 whole entry): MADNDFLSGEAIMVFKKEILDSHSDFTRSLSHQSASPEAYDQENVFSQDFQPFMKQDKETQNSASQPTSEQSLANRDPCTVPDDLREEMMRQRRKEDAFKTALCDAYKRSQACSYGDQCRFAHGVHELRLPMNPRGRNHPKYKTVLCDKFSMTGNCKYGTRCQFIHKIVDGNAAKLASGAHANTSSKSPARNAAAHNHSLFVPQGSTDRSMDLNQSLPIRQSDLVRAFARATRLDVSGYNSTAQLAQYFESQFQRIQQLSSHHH
# Test: inhibitors of POS-1/mex-3 RNA binding, dose response, biochemical, fluorescence polarization (AID 1964);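 note: purified POS-1 fused to maltose binding protein made in E. coli; potency of compounds blocking POS-1 binding to fluorescent RNA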
# Details: not given
row,Compound,EC50
1,N=C1c2ccccc2CN1NC(=O)CC12CC3CC(CC(C3)C1)C2,> 300 µM (not active)
2,CN(C)c1ccc(/C=C2\N=C(C(C)(C)C)OC2=O)cc1,7.17 µM (active)
3,COC(=O)c1ccc(-n2c(CCC(=O)O)ccc2-c2ccccc2)cc1,> 300 µM (not active)
4,CCc1ccc(NC(=O)/C(C#N)=C/c2cc3ccc(C)cc3nc2N2CCOCC2)cc1,47.9 µM (active)
5,Cc1nn(C(C)C(=O)N2CCOCC2)c(=O)c2nn(-c3ccccc3)c(C)c12 (stereo not given),> 300 µM (not active)
